The values below are quoted from earlier work in article PMC9769502 (Microbiology Spectrum, 2022).

The test system of data set [1] is Leishmania donovani axenic amastigotes. The conditions noted are these: 50 μM miltefosine control; cited from earlier work. As to the method: Axenic amastigotes were differentiated as described previously ([69]); briefly, transgenic L. donovani promastigotes expressing mCherry were differentiated by pH and temperature shifts. Amastigotes were seeded into 96-well plates at 5 × 10^6 cells/mL and incubated for 48 h in the presence of decreasing drug concentrations, starting at 20 μM, along with the appropriate solvent controls. Fluorescence was monitored (587-nm excitation/610-nm emission) over 48 h using a FlexStation 3 benchtop multimode reader (Molecular Devices). At 50 μM miltefosine, 99% parasite inhibition is observed. Thus, chan ...

Data set [2] concerns Leishmania donovani intracellular amastigotes. The conditions noted are these: 50 μM miltefosine control; cited from earlier work. How it is done: Transgenic L. donovani promastigotes constitutively expressing mCherry and THP-1 macrophages were cultured as described above. Metacyclic promastigotes were isolated using a Ficoll-400 density gradient as previously described ([70]). Differentiated macrophages were exposed to parasites for 4 h at a multiplicity of infection (MOI) of 10 parasites:1 macrophage. After 4 h, the macrophages were washed thoroughly with 1× phosphate-buffered saline (PBS) (pH 7.4) and incubated overnight at 37°C with 5% CO2. Macrophages were transferred to 96-well plates at 5 × 10^6 cells/mL and exposed to antimicrobi ...

Data set [3] deals with Leishmania pifanoi axenic amastigotes. The conditions noted are these: full-length enterocin AS-48; read-out: IC50 against Leishmania pifanoi axenic amastigotes; cited from earlier work. The source says:
Enterocin AS-48, a class I bacteriocin, has been well characterized and is currently being investigated for use as an antimicrobial drug against a large variety of infectious disease agents ([45]). Enterocin AS-48 is a ribosomally produced, circularized bacteriocin encoded by Enterococcus faecalis subsp. liquefaciens strain S-48, which undergoes head-to-tail macrocyclization as a posttranslational modification ([46]). Efforts to engineer synthetic enterocin AS-48 have been made in order to improve mass production and bioactivity. Previously, segments of the bacteriocin have undergone α-ketoaci ...

Data set [4] has as its system axenic amastigotes. The conditions noted are these: previous data used to set the 20 μM screening concentration; read-out: IC50 of enterocin AS-48 (previous data); cited from earlier work. As to the method: We utilized a previously developed high-throughput screening assay using transgenic axenic amastigotes expressing a red fluorescent protein, mCherry. Changes in mCherry fluorescence were normalized to 50 μM miltefosine in order to quantify parasite inhibition ([52]). In total, 5 scaffold 25-mer peptides and 475 synthetic 25-mer peptide variants were screened (Fig. 1). […] The assa ... || In this work, we determined the efficacy and cytotoxicity of 480 synthetic, minimal AS-48 bacteriocin homolog peptide variants against L. donovani using phenotypic in vitro fluorometric assays. […] This study illustrates the successful use of rational design using the minimal domain of naturally occurring bacteriocin scaffolds to increase leishmanicidal activity.

Data set [5] concerns intracellular amastigotes. The conditions noted are these: previously shown; cited from earlier work. The source says: As Leishmania spp. are obligate intracellular parasites, intracellular amastigote IC50 value determination is necessary to understand the clinical relevance of the 10 antileishmanial peptide drug candidates.

Turning to `CCCCCCCCCCCCCCCCOP(=O)([O-])OCC[N+](C)(C)C` [miltefosine], in data set [1], the “Parasite inhibition (axenic amastigotes)” value was 99%. In addition, in data set [2], the Intracellular parasite inhibition is 99%.

With enterocin AS-48, the IC50 in data set [3] is 10.2 ± 1.2 µM; in data set [4] it was roughly 20 µM. The “Activity against intracellular amastigotes” value in data set [5] is on record as “limited activity”.

The term IC50 denotes the concentration needed to halve the response being measured.
